# Data: patent US20180193327A1, “PROPHYLACTIC LEUKOTRIENE INHIBITOR AND IMPLANT DISPLACEMENT THERAPY FOR PREVENTION AND TREATMENT OF CAPSULAR CONTRACTURE IN SILICONE BREAST AUGMENTATION” (priority 2017, published 2018)
# Values joined by “and” are separate entries in the source; they are usually repeats but may differ in a detail not shown here. Identical values can stand only once. Marks after values point to notes of the source that are not given here.
# What was measured:
# [1] = Liver function studies (transaminases) during Accolate therapy after capsulectomy and implant replacement; assay type: in vivo; conditions: at one month postoperatively; group of 279 patients, 20 mg twice daily
# Protocol: (§1) Patients were treated with Accolate 20 mg twice daily, beginning the day after surgery. Patients with a history of hepatitis or liver disease were excluded. Patient compliance with the recommended dosage was encouraged, but patients were advised that they could discontinue the medication at any time that they experienced significant side effects. All patients receiving Accolate therapy underwent liver function studies 4 weeks after the initiation of Accolate therapy. […] Follow-up liver function studies were performed at 2-week intervals, until transaminases normalized. […] Liver function studies were repeated after 3 months of Accolate therapy for patients choosing to continue Accolate for a 6-month course.
# [2] = Liver function studies (transaminases) during Accolate therapy after primary augmentation; assay type: in vivo, patients (women)
# Protocol: At thirty days postoperatively, blood testing was performed, with a measurement of transaminase levels and liver function studies. The softness of the breast implants as well as the implant movement and position was evaluated to determine if capsular contracture was present. Patients with normal liver function studies were provided two more months of Accolate therapy. At the completion of this, two additional months of treatment, the breasts were evaluated for the presence of capsular contracture. Patients without clinical capsular contracture, Baker I and II, were completed with therapy. Patients with clinical capsular contracture, either Baker III or IV, underwent repeat liver function studies. If transaminase levels were within normal limits, an additional three months of Accolate therapy was prescribed with the continuation of breast implant displacement therapy.
# If liver function studies were abnormal and transaminase levels were elevated at any time in the treatment period, Accolate therapy was immediately discontinued and repeat liver function studies were performed every 14 days until normal levels were reached. If applicable, breast implant displacement therapy was continued and patients were offered 800 units-1000 units of Vitamin E daily in lieu of Accolate. Patients undergoing treatment with Accolate were monitored with a blood testing program. Following thirty days of treatment with Accolate, patients underwent liver function studies with evaluation of transaminase enzymes, including SGOT and SGPT, or ALT and AST. Normal ranges of enzyme levels were required to continue Accolate therapy.
# All patients receiving Accolate therapy underwent liver function studies four weeks following the initiation of Accolate therapy. […] Follow-up liver function studies were performed at two week intervals, until transaminases normalized. […] Liver function studies were repeated after three months of Accolate therapy for patients choosing to continue Accolate for a six month course.
# [3] = system: capsular contracture in patients undergoing primary silicone gel breast augmentation; assay: Capsular contracture (Baker scale) at one year after primary silicone gel breast augmentation, retrospective review; assay type: in vivo, patients (women); conditions: for % of Patients with Capsular Contracture: one year following primary silicone gel breast augmentation, Baker grade III or IV, three months therapy plus implant displacement protocol
# Protocol: The study was performed with a retrospective review of 1122 consecutive women undergoing primary, silicone gel breast augmentation. Over time, the author added leukotriene inhibitor therapy to the postoperative treatment of patients. The first group of patients were treated without leukotriene therapy. Consecutive patients agreeing to the off-label use of leukotriene inhibitors were then studied. The second group of consecutive patients was offered Singulair therapy postoperatively while all other aspects of the surgical technique and care remained the same. Finally, the author offered Accolate therapy to the final group of patients undergoing breast augmentation.
# Patients chose augmentation with either a periareolar or inframammary approach. Silicone breast augmentation procedures were performed using a standardized, dual plane technique. All patients were treated with preoperative intravenous antibiotics, either a one-gram dose of cephazolin or 600 mg of clindamycin, selected based on allergy profiles. Prior to insertion of implants, triple-antibioic irrigation (50,000 U bacitracin, 1 g Ancef, 80 mg gentamicin) with the addition of 50 ml of povidone-iodine in 500 ml of normal saline was utilized. All implants were placed with power-free glove changes, and inserted through a skin barrier/nipple shield using Tegaderm dressings. The implant displacement therapy protocol was initiated on post-operative day two.
# (§2) Patients that were administered Singulair were treated according to the method described in FIGS. 1 and 2 of the present disclosure. First, patients were evaluated clinically to see if they were a candidate for breast augmentation with physical examination and medical history. The medical history review included discussion and review of liver health, current medications, and potential contraindications or drug interactions with leukotriene inhibitors. Patients were then provided an informed consent for the use of Singulair, 10 mg daily. The informed consent reviewed the potential benefits and risks of this medication which is taken as an off-label indication. Breast augmentation was performed with either smooth or textured silicone or saline implants. On the day following surgery, Singulair therapy is initiated, 10 mg QD. In the first week following surgery, the implant displacement therapy protocol was begun for patients with smooth surface silicone implants. The implant displacement therapy protocol may also be performed, if indicated, for patients with mildly textured breast implants, but not with moderately textured or highly textured devices. Monitoring for side effects from Singulair was conducted by educating patients as to the common side effects and discussing with patients noted side effects. Singulair can be discontinued if the side effects are significant. At thirty days postoperatively, the softness of the breast implants as well as the implant movement and position was evaluated to determine if capsular contracture was present. Two more months of Singulair was prescribed. Following three total months of therapy, the breasts were evaluated for the presence of capsular contracture. Patients without clinical capsular contracture, Baker I and II, were completed with therapy. Patients with clinical capsular contracture, either Baker III or IV, were treated with an additional three months of Singulair therapy as prescribed with the continuation of implant displacement therapy protocol. If patients declined to take Singulair or had side effects from the medication, implant displacement therapy protocol was continued and patients were offered 800 units-1000 units of Vitamin E daily in lieu of Singulair.
# Patients that were administered Accolate were treated according to the method described in FIGS. 1 and 2 of the present disclosure. First, patients were evaluated clinically to see if they were a candidate for breast augmentation with physical examination and medical history. […]
# [4] = system: capsular contracture in patients undergoing capsulectomy and silicone implant replacement; assay: Recurrence of capsular contracture (Baker scale) at one year after capsulectomy and silicone implant replacement; assay type: in vivo
# Protocol: The study was performed with patients undergoing primary capsulectomy and silicone implant replacement for grade III and IV capsular contracture according to the methods depicted in FIGS. 3 and 4 of the present disclosure. […] Patients with a history of subglandular breast augmentation or those who underwent concurrent mastopexy revision or replacement with textured silicone breast implants were not included in the study. Enrolled patients underwent surgery with either an inframammary or periareolar incision.
# One group of patients underwent capsulectomy and implant replacement without the use of leukotriene inhibitors. Another group of patients agreed to the off-label use of zafirlukast (Accolate; AstraZeneca Pharmaceuticals, Wilmington, Del.) and were treated beginning the day following the capsulectomy and implant replacement procedure. All patients were between the ages of 22 and 60 years of age and consented to the use of Mentor Memory Gel silicone gel breast implants with a smooth surface (Mentor Worldwide, Irvine, Calif.) and the off-label use of triple-antibiotic irrigation containing povidone-iodine (Betadine; Purdue Frederick Co., Norwalk, Conn.). In addition, a detailed informed consent was provided for the off-label use of Accolate. All patients were adequately informed of the risks, potential unknown benefits, cost, and potential side effects of leukotriene therapy with both verbal and written consent. Patients were informed that taking Accolate was voluntary and that they could discontinue this medication at any time for any reason.
# Patients undergoing capsulectory and re-augmentation were treated with the incision initially used by the original surgeon, with either an inframmary or periareolar approach. All patients were surgically treated with complete periprosthetic capsulectomy. Patients were also treated with preoperative intravenous antibiotics, either a 1-g dose of cephazolin or 600 mg of clindamycin, selected based on allergy profiles. Before insertion of implants, triple-antibiotic irrigation [50,000 U of bacitracin, 1 g of Ancef (GlaxoSmithKline, Middlesex, United Kingdom), and 80 mg of gentamicin] with the addition of 50 ml of povidone-iodine in 500 ml of normal saline was used.
# Hemovac ⅛ inch drains (Medline Industries, Rialto, Calif.) were used on all breasts receiving capsulectomy. All implants were placed with powder-free glove changes and inserted through a skin barrier/nipple shield using Tegaderm (3M, St. Paul, Minn.) dressings. Drains were left in place until drainage from one breast reached 30 ml/24 hrs, or 60 ml/24 hrs if both breasts were treated. The implant displacement therapy protocol was initiated two days after drains were removed.
# as §1
# All patients were evaluated at frequent follow-up appointments, including early postoperative visits, 1 month, 3 months, 6 months, and 1 year postoperatively. Capsular contracture was evaluated by the Baker scale. Patients with grade III or IV capsular contractures were considered as having clinical capsular contracture. Each patient was considered based on the number of their breasts associated with clinical capsular contracture ranging from none to two breasts. […]
# [5] = Voluntary discontinuation of Accolate after capsulectomy and implant replacement; assay type: in vivo; conditions: group of 279 patients
# Protocol: as §1
# A total of 447 consecutive patients were evaluated during the study period. A first group of 168 consecutive patients with encapsulated breast implants were studied and no leukotriene inhibitor therapy was offered postoperatively. This included 55 patients with bilateral capsular contracture. […] A second group of 279 consecutive patients with encapsulated breast implants were studied and treated with Accolate, including 87 patients with bilateral capsular contracture. There were 366 breasts with capsular contracture among patients in this group. […] Twelve patients discontinued the use of Accolate voluntarily based on cost or minor side effects and were excluded from the study.
# [6] = Side effects and discontinuation reported by patients taking leukotriene inhibitors after primary augmentation; assay type: in vivo, patients (women); conditions: for Percentage of patients discontinuing the medication because of (minor) side effects or cost: female, 3 months
# Protocol: as §2
# Patients that were administered Accolate were treated according to the method described in FIGS. 1 and 2 of the present disclosure. First, patients were evaluated clinically to see if they were a candidate for breast augmentation with physical examination and medical history. The medical history review included discussion and review of liver health, current medications, and potential contraindications or drug interactions with leukotriene inhibitors. Patients were then provided an informed consent for the use of Accolate (Zafirlukast), 20 mg twice daily. Patients were counseled to take the medication at least one hour before meals. The informed consent reviews the potential benefits and risks of this medication which is taken as an off-label indication. Breast augmentation was performed with either smooth or textured silicone or saline implants. On the day following surgery, Accolate therapy was initiated, 20 mg BID. In the first week following surgery, the implant displacement therapy protocol was begun for patients with smooth surface silicone implants. The implant displacement therapy protocol may also be performed, if indicated, for patients with mildly textured breast implants, but not with moderately textured or highly textured devices. […]
# [7] = FDA post-approval studies for the treatment of asthma; cited from earlier work
# [8] = one year following silicone gel breast augmentation
# [9] = one year following silicone gel breast augmentation, patients with contracture/patients followed
# [10] = preoperative Grade III (172 breasts)
# [11] = preoperative Grade IV (194 breasts)
# [12] = preoperative Total III/IV (366 breasts)
structure (smiles),measurement,setting,value
"COc1cc(C(=O)NS(=O)(=O)c2ccccc2C)ccc1Cc1cn(C)c2ccc(NC(=O)OC3CCCC3)cc12 [Accolate, Zafirlukast]",Number of patients with (mild) elevation of transaminases,[1],Two
same,Percentage of patients with (mild) elevation of transaminases,"[2]; at 30 days of treatment, 20 mg bid, medication discontinued",0.58%
same,Number of patients with (mild) elevation of transaminases,"[2]; at 30 days of treatment, out of 520 treated",Three and 3/520
same,Time for transaminases to return to normal after discontinuing the medication,"[2]; two patients within two weeks, one patient within four weeks",four
same,Reduction of the encapsulation risk,"[3]; addition of the drug in the first three months following augmentation, versus no leukotriene inhibitor",over 50%
same,% of Patients with Capsular Contracture,[3],2.19%*
same,"Percentage of patients demonstrating capsular contracture, inframammary incision",[3]; [8],1.74%
same,"Percentage of patients demonstrating capsular contracture, periareolar incision",[3]; [8],2.31% and 2.38%
same,"Percentage of patients demonstrating capsular contracture, total (both incisions)",[3]; [8],2.19%
same,"Number of patients demonstrating capsular contracture, inframammary incision",[3]; [9],2/115
same,"Number of patients demonstrating capsular contracture, total (both incisions)",[3]; [9],8/375
same,Number of patients with grade III/IV capsular contracture at three months that improved to grade II with an additional three months of therapy,"[3]; primary augmentation, six months of therapy in total",five
same,Capsular contracture rate compared with patients not treated with leukotriene inhibitors,"[3]; three months of therapy after primary augmentation, result in words",significantly lower
same,"Number of breasts with capsular contracture, postoperative Grade III",[4]; [10],7
same,"Number of breasts with capsular contracture, postoperative Grade IV",[4]; [10],2
same,"Number of breasts with capsular contracture, postoperative Total",[4]; [10],9
same,"Percent of breasts with capsular contracture, postoperative Grade III",[4]; [10],4.1%
same,"Percent of breasts with capsular contracture, postoperative Grade IV",[4]; [10],1.2%
same,"Percent of breasts with capsular contracture, postoperative Total",[4]; [10],5.3%
same,"Number of breasts with capsular contracture, postoperative Grade III",[4]; [11],15
same,"Number of breasts with capsular contracture, postoperative Grade IV",[4]; [11],5
same,"Number of breasts with capsular contracture, postoperative Total",[4]; [11],20
same,"Percent of breasts with capsular contracture, postoperative Grade III",[4]; [11],7.8%
same,"Percent of breasts with capsular contracture, postoperative Grade IV",[4]; [11],2.6%
same,"Percent of breasts with capsular contracture, postoperative Total",[4]; [11],10.3%
same,"Number of breasts with capsular contracture, postoperative Grade III",[4]; [12],22
same,"Number of breasts with capsular contracture, postoperative Grade IV",[4]; [12],7
same,"Number of breasts with capsular contracture, postoperative Total",[4]; [12],29
same,"Percent of breasts with capsular contracture, postoperative Grade III",[4]; [12],6.0%
same,"Percent of breasts with capsular contracture, postoperative Grade IV",[4]; [12],1.9%
same,"Percent of breasts with capsular contracture, postoperative Total",[4]; [12],7.9%
same,Number of patients who discontinued voluntarily based on cost or minor side effects,[5],Twelve
same,Percentage of patients discontinuing the medication because of (minor) side effects or cost,"[6]; human, in vivo",6.2%
same,Irreversible side effects noted in the study,"[6]; human, in vivo",no irreversible side effects
same,Patients who tolerated the medication well,[6]; primary augmentation study,~95%
same,Potential significant (uncommon) risks reported,[7],"chemical hepatitis, liver failure, and even death"
"CC(C)(O)c1ccccc1CC[C@@H](SCC1(CC(=O)O)CC1)c1cccc(/C=C/c2ccc3ccc(Cl)cc3n2)c1 [Singulair, Montelukast]",% of Patients with Capsular Contracture,[3],3.27%
same,"Percentage of patients demonstrating capsular contracture, inframammary incision",[3]; [8],2.08%
same,"Percentage of patients demonstrating capsular contracture, periareolar incision",[3]; [8],3.81%
same,"Percentage of patients demonstrating capsular contracture, total (both incisions)",[3]; [8],3.27%
same,Percentage of patients discontinuing the medication because of (minor) side effects or cost,"[6]; human, in vivo",2.5%
same,Common side effects reported by patients,"[6]; human, in vivo","headache, GI symptoms, fatigue, rash"
